Laboratory results from patent publication US8178506B2, “Oligomeric compounds and compositions for use in modulation of small non-coding RNAs” (Regulus Therapeutics Inc., priority 2003, dated 2012).
In the oligonucleotide strings, read from the 5' end, every base follows the letter of its sugar. An asterisk marks phosphorothioate; unmarked linkages are phosphodiester. Other units and linkages are bracketed, terminal groups are in braces. A string of capitals states the bases alone. e = 2'-O-(2-methoxyethyl) (MOE); [5mC] = 5-methylcytosine; d = 2'-deoxy (DNA)

Key:
mir-30a pri-miRNA = assay: mir-30a luciferase reporter (pGL3C-M30-4X) assay in 293T cells; format: cell-based, human; conditions: 150 nM oligomeric compound, then mir-30a pri-miRNA mimic 200 nM, pGL3C-M30-4X normalized to pRL-CMV
From the text: In one embodiment of the invention, oligomeric compounds targeting the hairpin structure of mir-30a pri-miRNA were designed and tested for their effects on miRNA signaling in 293T cells (American Type Culture Collection (Manassas, Va.)).
A synthetic DNA fragment comprised of four tandem repeats of the target site for mir-30a was cloned into the vector pGL3-C (purchased from Promega Corp., Madison Wis.) at the unique XbaI site (pGL3C-M30-4X). This places the target site in the 3′UTR of the luciferase reporter vector. An oligomeric compound mimicking the mir-30a pri-miRNA ([…] […], herein incorporated as SEQ ID NO: 1749) was in vitro transcribed using T7 RNA polymerase and a DNA template produced by PCR (the T7 promoter is shown in bold).
On the day prior to the experiment 24-well plates were seeded with 293T cells at 50% confluency. The following morning cells were treated with oligomeric compounds targeted to the mir-30a pri-miRNA mimic. All of the compounds are 20 nucleobases in length having either a phosphorothioate backbone throughout (PS) or a phosphodiester backbone throughout (PO). […] All cytidine residues are 5-methylcytidines. The remaining compounds in the table have 2′-methoxyethoxy (MOE) nucleotides throughout with either a phosphorothioate (PS) or phosphodiester (PO) internucleoside linkages.
Cells were washed once with PBS then oligomeric compounds were added to triplicate wells at 150 nM in OPTI-MEM™ media and 4.5 μl/ml LIPOFECTIN™ reagent (Invitrogen Corporation, Carlsbad, Calif.). After 3 hours, the media was removed, and the cells were treated with the mir-30a pri-miRNA mimic at 200 nM in OPTI-MEM™ with 6 μl/ml LIPOFECTIN™ reagent. After 3 hours the media was removed from the cells. The reporter plasmid, pGL3C-M30-4X, was then transfected using SuperFect reagent. 20 μg of pGL3C-M30-4X and 2 μg of pRL-CMV, a plasmid expressing Renilla luciferase, were suspended in 600 μL of serum-free DMEM to which 120 μl of Superfect was added. After a 5 minute incubation, 6 mls of DMEM+10% FCS was added. 125 μL of the plasmid/SuperFect suspension was added to each well. After a 2 hour incubation cells were washed and fresh growth media added. Cells were incubated overnight.
The following morning the media was removed and the cells were lysed in 120 μL passive lysis buffer (PLB; Promega). 40 μL of the lysate was then assayed for Photinus (PL) and Renilla (RL) luciferases using a Dual Luciferase Assay kit (Promega) according to the manufacturer's protocol. The results below are given as percent pGL3C-M30-4× expression (PL) normalized to pRL-CMV expression (RL). The 20-nucleobase oligonucleotide random-mer ISIS Number 29848 was used as a negative control.

HepG2 cells = assay: Insulin signaling assay in HepG2 cells, marker genes taken together; format: cell-based, human; conditions: for mRNA levels of the IGFBP-1 and follistatin genes / expression of the IGFBP-1, PEPCK-c and follistatin marker genes: HepG2, 1 nM insulin; for expression of the IGFBP-1, PEPCK-c and follistatin marker genes: 100 nM
PEPCK-c = PEPCK-c mRNA expression in HepG2 cells; format: cell-based, human; conditions: 100 nM; for reduction of PEPCK-c mRNA expression: HepG2, 1 nM insulin
HuVECs = assay: Endothelial tube formation assay in HuVECs; conditions: 75 nM
[1] = tested on: preadipocytes / differentiating adipocytes; assay: Adipocyte differentiation assay, markers taken together; format: cell-based, human
leptin = assay: Leptin secretion by adipocytes (ELISA); format: cell-based, human; conditions: preadipocytes, 250 nM, day nine
Experimental: Leptin secretion into the medium in which adipocytes are cultured is measured by protein ELISA. On day nine post-transfection, 96-well plates are coated with a monoclonal antibody to human leptin (R&D Systems, Minneapolis, Minn.) and left at 4° C. overnight. The plates are blocked with bovine serum albumin (BSA), and a dilution of the treated adipoctye medium is incubated in the plate at room temperature for approximately 2 hours. After washing to remove unbound components, a second monoclonal antibody to human leptin (conjugated with biotin) is added. The plate is then incubated with strepavidin-conjugated horse radish peroxidase (HRP) and enzyme levels are determined by incubation with 3, 3′,5,5′-tetramethlybenzidine, which turns blue when cleaved by HRP. The OD450 is read for each well, where the dye absorbance is proportional to the leptin concentration in the cell lysate.
Leptin is also a marker for differentiated adipocytes. In the adipocyte assay, leptin secretion into the media above the differentiated adipocytes was measured by protein ELISA. Cell growth, transfection and differentiation procedures were carried out as described for the Triglyceride accumulation assay (see below). On day nine post-transfection, 96-well plates were coated with a monoclonal antibody to human leptin (R&D Systems, Minneapolis, Minn.) and left at 4° C. overnight. The plates were blocked with bovine serum albumin (BSA), and a dilution of the media was incubated in the plate at RT for 2 hours. After washing to remove unbound components, a second monoclonal antibody to human leptin (conjugated with biotin) was added. The plate was then incubated with strepavidin-conjugated horseradish peroxidase (HRP) and enzyme levels are determined by incubation with 3, 3′, 5,5′-Tetramethlybenzidine, which turns blue when cleaved by HRP. The OD450 was read for each well, where the dye absorbance is proportional to the leptin concentration in the cell lysate. Results are expressed as a percent±standard deviation relative to transfectant-only controls.

adipocytes = assay: Triglyceride accumulation assay in adipocytes; format: cell-based, human; conditions: preadipocytes, 250 nM, day nine
T47D cells = assay: Caspase-3 activity assay (apoptosis) in T47D cells; conditions: caspase assay, 200 nM; conclusion from Tables 9-12
ob/ob mice = assay: ob/ob mice: plasma parameters, food consumption, marker gene mRNA; format: in vivo, mouse; conditions: six week old ob/ob mice, 25 mg/kg twice weekly for four weeks
From the text: Leptin is a hormone produced by fat cells that regulates appetite. Deficiencies in this hormone in both humans and non-human animals leads to obesity. ob/ob mice have a mutation in the leptin gene which results in obesity and hyperglycemia. As such, these mice are a useful model for the investigation of obesity and diabetes and treatments designed to treat these conditions. ob/ob mice have higher circulating levels of insulin and are less hyperglycemic than db/db mice, which harbor a mutation in the leptin receptor. In accordance with the present invention, the oligomeric compounds of the invention are tested in the ob/ob model of obesity and diabetes.
Seven-week old male C57B1/6J-Lep ob/ob mice (Jackson Laboratory, Bar Harbor, Me.) are fed a diet with a fat content of 10-15% and are subcutaneously injected with the oligomeric compounds of the invention or a control compound at a dose of 25 mg/kg two times per week for 4 weeks. Saline-injected animals, leptin wildtype littermates (i.e. lean littermates) and ob/ob mice fed a standard rodent diet serve as controls. After the treatment period, mice are sacrificed and target levels are evaluated in liver, brown adipose tissue (BAT) and white adipose tissue (WAT). RNA isolation and target RNA expression level quantitation are performed as described by other examples herein.
To assess the physiological effects resulting from modulation of target, the ob/ob mice are evaluated at the end of the treatment period for serum lipids, serum free fatty acids, serum cholesterol (CHOL), liver triglycerides, fat tissue triglycerides and liver enzyme levels. Hepatic steatosis, or clearing of lipids from the liver, is assessed by measuring the liver triglyceride content. Hepatic steatosis is assessed by routine histological analysis of frozen liver tissue sections stained with oil red O stain, which is commonly used to visualize lipid deposits, and counterstained with hematoxylin and eosin, to visualize nuclei and cytoplasm, respectively.
The effects of target modulation on glucose and insulin metabolism are evaluated in the ob/ob mice treated with the oligomeric compounds of the invention. Plasma glucose is measured at the start of the treatment and after 2 weeks and 4 weeks of treatment. Plasma insulin is similarly measured at the beginning of the treatment, and following at 2 weeks and at 4 weeks of treatment. Glucose and insulin tolerance tests are also administered in fed and fasted mice. Mice receive intraperitoneal injections of either glucose or insulin, and the blood glucose and insulin levels are measured before the insulin or glucose challenge and at 15, 20 or 30 minute intervals for up to 3 hours.
The ob/ob mice that receive treatment are evaluated at the end of the treatment period for the effects of target modulation on the expression of genes that participate in lipid metabolism, cholesterol biosynthesis, fatty acid oxidation, fatty acid storage, gluconeogenesis and glucose metabolism. These genes include, but are not limited to, HMG-CoA reductase, acetyl-CoA carboxylase 1 and acetyl-CoA carboxylase 2, camitine palmitoyltransferase I and glycogen phosphorylase, glucose-6-phosphatase and phosphoenolpyruvate carboxykinase 1, lipoprotein lipase and hormone sensitive lipase. mRNA levels in liver and white and brown adipose tissue are quantitated by real-time PCR as described in other examples herein, employing primer/probe sets that are generated using published sequences of each gene of interest.
As described herein, leptin-deficient (ob/ob) mice, leptin receptor-deficient (db/db) mice and diet-induced obesity (DIO) mice are used to model obesity and diabetes. In accordance with the present invention, oligomeric compounds targeting mir-143, mir-131 (also known as mir-9) and mir-203 were tested in the ob/ob and db/db models. […]

328075 (antisense GCTTCACAGCTTCCAGTCGA; all 2'-MOE, all phosphorothioate, methylation of C not given here) [compound 328075]
percent control luciferase expression (mir-30a pri-miRNA): 55 percent control

328077 (antisense CCCATCTGTGGCTTCACAGC; all 2'-MOE, all phosphorothioate, methylation of C not given here) [compound 328077]
percent control luciferase expression (mir-30a pri-miRNA): 70 percent control

ISIS 328761: oligomeric compound targeting hypothetical mir-138 (antisense eG*e[5mC]*eA*eG*eG*d[5mC]*dT*dA*dA*dA*dA*dG*dA*dA*dA*eT*eA*eA*eG*e[5mC])
mRNA levels of the IGFBP-1 and follistatin genes (HepG2 cells): also reduced
reduction of PEPCK-c mRNA expression (PEPCK-c): 45%
decrease in PEPCK-c mRNA (PEPCK-c; HepG2, basal (no insulin)): 52%

328081 (antisense eT*eG*eA*eA*eA*dG*d[5mC]*d[5mC]*d[5mC]*dA*dT*d[5mC]*dT*dG*dT*eG*eG*e[5mC]*eT*eT) [compound 328081]
percent control luciferase expression (mir-30a pri-miRNA): 80 percent control

328086 (antisense e[5mC]*eA*eT*e[5mC]*eT*dG*dT*dG*dG*d[5mC]*dT*dT*d[5mC]*dA*d[5mC]*eA*eG*e[5mC]*eT*eT) [compound 328086]
percent control luciferase expression (mir-30a pri-miRNA): 95 percent control

CAGCCGCTGTCACACGCACAG (anti-miR; chemistry not fully specified) [ISIS 327959]
IGFBP-1 and PEPCK-c marker genes (HepG2 cells; HepG2, basal (no insulin)): increases in the IGFBP-1 and PEPCK-c marker genes
tube formation (HuVECs): suppressed tube formation

328080 (antisense TGAAAGCCCATCTGTGGCTT; all 2'-MOE, all phosphorothioate, methylation of C not given here) [compound 328080]
percent control luciferase expression (mir-30a pri-miRNA): 72 percent control

TAGCTGGTTGAAGGGGACCAA (anti-miR; chemistry not fully specified) [ISIS 327925]
expression of the IGFBP-1, PEPCK-c and follistatin marker genes (HepG2 cells): increased expression of the IGFBP-1, PEPCK-c and follistatin marker genes
tube formation (HuVECs): suppressed tube formation

328076 (antisense eG*e[5mC]*eT*eT*e[5mC]*dA*d[5mC]*dA*dG*d[5mC]*dT*dT*d[5mC]*d[5mC]*dA*eG*eT*e[5mC]*eG*eA) [compound 328076]
percent control luciferase expression (mir-30a pri-miRNA): 57 percent control

ACAGGCCGGGACAAGTGCAATA (anti-miR; chemistry not fully specified) [ISIS 327897, uniform 2′-MOE PS; targets mir-92-1]
5 markers of adipocyte differentiation ([1]; differentiating adipocytes, % of UTC (Table 75)): significant reduction in expression of 4 of the 5 markers of differentiation
expression of the IGFBP-1 and follistatin marker genes (HepG2 cells; HepG2, basal (no insulin)): increased expression of the IGFBP-1 and follistatin marker genes

TCACAAGTTAGGGTCTCAGGGA [ISIS 327939]
expression of the four adipocyte differentiation hallmark genes ([1]; preadipocytes, 250 nM, day nine): decrease in the expression of all four adipocyte differentiation hallmark genes
expression of the IGFBP-1, PEPCK-c and follistatin marker genes (HepG2 cells): increased expression of the IGFBP-1, PEPCK-c and follistatin marker genes
Leptin (secretion) (leptin): significant increase in leptin secretion
triglyceride accumulation (adipocytes): decrease in triglyeride accumulation

ISIS 328377: 5-10-5 2′-MOE gapmer PS; targets hypothetical miRNA-030 pri-miRNA (eT*e[5mC]*eA*e[5mC]*eT*d[5mC]*d[5mC]*dT*dA*dA*dA*dG*dG*dT*dT*e[5mC]*eA*eA*eG*eT)
expression of the IGFBP-1, PEPCK-c and follistatin marker genes (HepG2 cells): increased expression of the IGFBP-1, PEPCK-c and follistatin marker genes
apoptosis in T47D cells (T47D cells): prevent or have a protective effect from apoptosis

GAAACCCAGCAGACAATGTAGCT (anti-miR; chemistry not fully specified) [ISIS 345384, PS 2′-MOE 5-10-8 gapmer; targets mir-221]
plasma glucose levels in the fed state (ob/ob mice): reductions in plasma glucose levels in the fed state at weeks two and four

ISIS 328765: oligomeric compound targeting mir-215 (antisense eG*eA*e[5mC]*eA*eA*dA*d[5mC]*dT*d[5mC]*dA*dG*d[5mC]*dT*dA*dT*eA*eT*eT*eG*eT)
mRNA levels of the IGFBP-1 and follistatin genes (HepG2 cells): also reduced
reduction of PEPCK-c mRNA expression (PEPCK-c): 27%
